Converted amounts (≈) assume the structure as drawn.
Columns and labels:
[1] = Aqueous solubility; format: physicochemical; conditions: for solubility: aqueous solution
Excerpt: The compounds of the present invention may have improved aqueous solubility compared with telcagepant.

[2] = In vivo conversion to telcagepant after IV dosing, rat (plasma AUC by LC/MS); conditions: 3.53 umol/kg, IV dose 3.53 μmol/kg, DMSO vehicle, plasma AUC of Compound 1 (telcagepant)
Excerpt: The compounds of the present invention may be efficiently converted to give parent telcagepant in vivo. For illustrative purposes, data for the in vivo conversion of Example 1 to telcagepant in preclinical species are shown in Table 2.

| solubility ([1]; aqueous buffer, pH 4.0) [µg/mL] | solubility ([1]; aqueous buffer, pH 9.0) [µg/mL] | AUC [2] [µM·h] | solubility ([1]; aqueous buffer, pH 2.0) [µg/mL] | solubility ([1]; pH 7.3, aqueous buffer) [µg/mL] | aqueous solubility (in words) ([1]; general statement, no pH given) | Compound |
| --- | --- | --- | --- | --- | --- | --- |
| > 150000 | > 150000 | – | – | – | – | O=C(N[C@@H]1CC[C@@H](c2cccc(F)c2F)CN(CC(F)(F)F)C1=O)N1CCC(n2c(=O)n(COP(=O)([O-])O)c3ncccc32)CC1.[Na+] [Example 1, {1-[1-({[(3R,6S)-6-(2,3-Difluorophenyl)-2-oxo-1-(2,2,2-trifluoroethyl)azepan-3-yl]amino}carbonyl)piperidin-4-yl]-2-oxo-1,2-dihydro-3H-imidazo[4,5-b]pyridin-3-yl}methyl hydrogen sodium phosphate] |
| – | – | 6.46 | 77 (≈ 136 µM) | 31 (≈ 54.7 µM) | low aqueous solubility | O=C(N[C@@H]1CC[C@@H](c2cccc(F)c2F)CN(CC(F)(F)F)C1=O)N1CCC(n2c(=O)[nH]c3ncccc32)CC1 [Telcagepant, N-[(3R,6S)-6-(2,3-difluorophenyl)-2-oxo-1-(2,2,2-trifluoroethyl)azepan-3-yl]-4-(2-oxo-2,3-dihydro-1H-imidazo[4,5-b]pyridine-1-yl)piperidin-1-carboxamide] |

From patent publication US8080544B2, “Prodrugs of CGRP receptor antagonists” (Merck Sharp & Dohme Corp., priority 2008, dated 2011)
